Reference: ChEMBL document CHEMBL1629460, “Image-based high-throughput drug screening targeting the intracellular stage of Trypanosoma cruzi, the agent of Chagas' disease” (Antimicrob Agents Chemother, 2010)

Tests used:
[1] = Selectivity window, ratio of EC50 for BESM cells to EC50 for Trypanosoma cruzi amastigotes infected in BESM cells; design: reference not given here
[2] = Cytotoxicity against BESM cells after 88 hrs by HTS assay; format: ADME, cell-based; conditions: Bos taurus
Trypanosoma cruzi = assay: Antitrypanosomal activity against Trypanosoma cruzi amastigotes infected in BESM cells measured after 88 hrs postinfection by HTS assay; format: functional, organism-based

Row | SMILES | Ratio EC50 [1] | EC50 [2] [µM] | EC50 (Trypanosoma cruzi) [µM]
1 | CC[C@H](C)[C@H]1O[C@]2(C=C[C@@H]1C)C[C@@H]1C[C@@H](C/C=C(\C)[C@@H](O[C@H]3C[C@H](OC)[C@@H](O[C@H]4C[C@H](OC)[C@@H](O)[C@H](C)O4)[C@H](C)O3)[C@@H](C)/C=C/C=C3\CO[C@@H]4[C@H](O)C(C)=C[C@@H](C(=O)O1)[C@]34O)O2.CO[C@H]1C[C@H](O[C@H]2[C@H](C)O[C@@H](O[C@@H]3/C(C)=C/C[C@@H]4C[C@@H](C[C@]5(C=C[C@H](C)[C@@H](C(C)C)O5)O4)OC(=O)[C@@H]4C=C(C)[C@@H](O)[C@H]5OC/C(=C\C=C\[C@@H]3C)[C@]54O)C[C@@H]2OC)O[C@@H](C)[C@@H]1O [ABAMECTIN] | 3 | 12 | 4
2 | CCC(=O)O[C@]1(C(=O)CCl)[C@@H](C)C[C@H]2[C@@H]3CCC4=CC(=O)C=C[C@]4(C)[C@@]3(F)[C@@H](O)C[C@@]21C [CLOBETASOL PROPIONATE] | 1.6 | 41 | 25
3 | C[C@@H]1C[C@H]2[C@@H]3CCC4=CC(=O)C=C[C@]4(C)C3=CC[C@]2(C)[C@H]1C(=O)CN1CCN(c2cc(N3CCCC3)nc(N3CCCC3)n2)CC1 [TIRILAZAD] | >1.8 | > 50 | 28
4 | Cc1ccc(/N=C/N(C)/C=N/c2ccc(C)cc2C)c(C)c1 [AMITRAZ] | 2.1 | 33 | 16
5 | Cc1cc2c(OCC(CNC(C)(C)C)OC(=O)c3ccccc3)cccc2[nH]1 (stereo not drawn) [BOPINDOLOL] | >1.3 | > 50 | 40
6 | COc1ccc(CN2CCN(C(c3ccc(F)cc3)c3ccc(F)cc3)CC2)c(OC)c1OC [LOMERIZINE] | 2.4 | 22 | 9
7 | CC(C)N1CCN(c2ccc(OCC3COC(Cn4cncn4)(c4ccc(Cl)cc4Cl)O3)cc2)CC1 (stereo not drawn) [TERCONAZOLE] | >60 | 24 | < 0.4
8 | CCC1=C[C@@H]2CN(C1)Cc1c([nH]c3ccccc13)[C@@](C(=O)OC)(c1cc3c(cc1OC)N(C)[C@H]1[C@@](O)(C(=O)OC)[C@H](OC(C)=O)[C@]4(CC)C=CCN5CC[C@]31[C@@H]54)C2 [VINORELBINE] | >5 | > 50 | 10
9 | O=C(Nc1ccc(Cl)c(Cl)c1)c1cc(Cl)cc(Cl)c1O [3,3',4',5-TETRACHLOROSALICYLANILIDE] | 3.3 | 26 | 8
10 | COc1cc2nc(N3CCN(C(=O)C4COc5ccccc5O4)CC3)nc(N)c2cc1OC (stereo not drawn) [DOXAZOSIN] | 2.3 | 27 | 12
11 | Cc1ccc(NC(=O)c2ccc(CN3CCN(C)CC3)cc2)cc1Nc1nccc(-c2cccnc2)n1 [IMATINIB] | 3.6 | 32 | 9
12 | C[C@H]([C@](O)(Cn1cncn1)c1ccc(F)cc1F)S(C)(=O)=O [GENACONAZOLE] | >2.8 | > 50 | 18
13 | COc1cc2nc(N3CCN(C(=O)c4ccco4)CC3)nc(N)c2cc1OC [PRAZOSIN] | 1.3 | 16 | 12
14 | C[C@@H]1C[C@@H]([C@H](O)CC2CC(=O)NC(=O)C2)C(=O)[C@@H](C)C1 [CYCLOHEXIMIDE] | >125 | > 50 | < 0.4
15 | CC(C)[C@@]1(NC(=O)[C@@H]2C[C@@H]3c4cccc5[nH]cc(c45)C[C@H]3N(C)C2)O[C@@]2(O)[C@@H]3CCCN3C(=O)[C@H](Cc3ccccc3)N2C1=O.CS(=O)(=O)O [DIHYDROERGOCRISTINE MESYLATE] | 9.4 | 47 | 5
16 | CC(C)[C@H]1C(=O)N2CCC[C@H]2[C@]2(O)O[C@](NC(=O)[C@@H]3C=C4c5cccc6[nH]cc(c56)C[C@H]4N(C)C3)(C(C)C)C(=O)N12 [ERGOCORNINE] | 2.4 | 43 | 18
17 | O=C(N/N=C/c1ccc([N+](=O)[O-])o1)c1cc([N+](=O)[O-])cc([N+](=O)[O-])c1O [NIFURSOL] | >3.3 | > 50 | 15
18 | OCCN1CCN(CCCN2c3ccccc3Sc3ccc(Cl)cc32)CC1 [PERPHENAZINE] | 2.6 | 13 | 5
19 | CN(C)CCCN1c2ccccc2Sc2ccccc21 [PROMAZINE] | 2.5 | 33 | 13
20 | Cc1c(O)cccc1C(=O)N[C@@H](CSc1ccccc1)[C@H](O)CN1C[C@H]2CCCC[C@H]2C[C@H]1C(=O)NC(C)(C)C | 2.7 | 32 | 12
21 | c1ccc(Cn2ccnc2)cc1 [BENZYLIMIDAZOLE] | >1.4 | > 50 | 35
22 | CN1[C@@H]2CC[C@H]1C[C@@H](OC(c1ccccc1)c1ccccc1)C2 [BENZTROPINE] | 2.7 | 46 | 17
23 | COc1c(C)c2c(c(O)c1C/C=C(\C)CCC(=O)OCCN1CCOCC1)C(=O)OC2 [MYCOPHENOLATE MOFETIL] | >7.1 | > 50 | 7
24 | CN(C)CCCN1c2ccccc2CCc2ccc(Cl)cc21 [CLOMIPRAMINE] | >6.3 | > 50 | 8
25 | O=C1OCCN1/N=C/c1ccc([N+](=O)[O-])o1 [FURAZOLIDONE] | >125 | > 50 | < 0.4
26 | CCCCCCCCCCCCC/C=C/[C@@H](O)[C@H](CO)NC(=O)CCCCCCC | 0.8 | 11 | 13

Row | SMILES | Ratio EC50 [1] | EC50 [2] [µM] | EC50 (Trypanosoma cruzi) [µM]
27 | Cc1c(C)c2c(c(C)c1O)CCC(C)(CN1CCN(c3cc(N4CCCC4)nc(N4CCCC4)n3)CC1)O2 (stereo not drawn) | >2.9 | > 50 | 17
28 | C=CCN1CC[C@]23c4c5ccc(O)c4O[C@H]2/C(=N/N=C2\CC[C@@]4(O)[C@H]6Cc7ccc(O)c8c7[C@@]4(CCN6CC=C)[C@H]2O8)CC[C@@]3(O)[C@H]1C5 [NALOXONAZINE] | 0.9 | 16 | 17
29 | CC(=O)O[C@]1(C(C)=O)CC[C@H]2[C@@H]3C=C(Cl)C4=CC(=O)[C@@H]5C[C@@H]5[C@]4(C)[C@H]3CC[C@@]21C [CYPROTERONE ACETATE] | >1.6 | > 50 | 32
30 | COc1ccccc1N1CCN(CC(O)COc2cccc3ccccc23)CC1 (stereo not drawn) [NAFTOPIDIL] | 1.6 | 18 | 11
31 | CNCCC(Oc1ccc(C(F)(F)F)cc1)c1ccccc1 (stereo not drawn) [FLUOXETINE] | 2.3 | 16 | 7
32 | CCN(CC)CCOCCC1=CCC2CC1C2(C)C (stereo not drawn) [MYRTECAINE] | 1.7 | 24 | 14
33 | CCc1nn(CCCN2CCN(c3cccc(Cl)c3)CC2)c(=O)n1CCOc1ccccc1 [NEFAZODONE] | 1.9 | 15 | 8
34 | CCOC(=O)N1CCC(=C2c3ccc(Cl)cc3CCc3cccnc32)CC1 [LORATADINE] | 1.9 | 17 | 9
35 | CN1CCCC(n2nc(Cc3ccc(Cl)cc3)c3ccccc3c2=O)CC1 (stereo not drawn) [AZELASTINE] | 49 | 49 | 1
36 | O=C(c1ccc(OCCN2CCCCC2)cc1)c1c(-c2ccc(O)cc2)sc2cc(O)ccc12 [RALOXIFENE] | 2.2 | 22 | 10
37 | Nc1c2c(nc3ccccc13)CCCC2 [TACRINE] | >2.1 | > 50 | 24
38 | CN(C)CCC=C1c2ccccc2CCc2ccccc21 [AMITRIPTYLINE] | 1.9 | 23 | 12
39 | COc1ccccc1OCCNCC(O)COc1cccc2[nH]c3ccccc3c12 (stereo not drawn) [CARVEDILOL] | 3.9 | 31 | 8
40 | C=C(C)[C@H]1CN[C@H](C(=O)O)[C@H]1CC(=O)O [KAINIC ACID] | 4.3 | 13 | 3
41 | O=C(CCCN1CCC(O)(c2ccc(Cl)cc2)CC1)c1ccc(F)cc1 [HALOPERIDOL] | 4.7 | 33 | 7
42 | OCCN1CCN(CCCN2c3ccccc3Sc3ccc(C(F)(F)F)cc32)CC1 [FLUPHENAZINE] | 5.3 | 21 | 4
43 | CN1C[C@H](CNC(=O)OCc2ccccc2)C[C@@H]2c3cccc4c3c(cn4C)C[C@H]21 [METERGOLINE] | 4.5 | 18 | 4
44 | CC(C)CC(N(C)C)C1(c2ccc(Cl)cc2)CCC1 (stereo not drawn) [SIBUTRAMINE] | 1.3 | 10 | 8
45 | COc1cc(N)[nH]c2nc(-c3ccc(F)cc3)c(-c3ccncc3)c1-2 | >10 | > 50 | 5
46 | CN1CCCN(C(c2ccccc2)c2ccc(Cl)cc2)CC1 (stereo not drawn) [HOMOCHLORCYCLIZINE] | 1.1 | 13 | 12
47 | CCCCOc1ccc(C(=O)CCN2CCCCC2)cc1.Cl [DYCLONINE HYDROCHLORIDE] | 2.4 | 36 | 15
48 | NC(=O)N/N=C/c1ccc([N+](=O)[O-])o1 [NITROFURAZONE] | >6.3 | > 50 | 8
49 | C#C[C@]1(OC(C)=O)CC[C@H]2[C@@H]3CCC4=CC(=O)CC[C@@H]4[C@H]3CC[C@@]21C [NORETHINDRONE ACETATE] | 1.6 | 28 | 17
50 | CN(C)C(=O)C(CCN1CCC(O)(c2ccc(Cl)cc2)CC1)(c1ccccc1)c1ccccc1 [LOPERAMIDE] | 4 | 12 | 3
51 | c1ccc2c(c1)Nc1ccccc1S2 [PHENOTHIAZINE] | 4.3 | 26 | 6
